From PMC6412143 (Pharmacology Research & Perspectives, 2019)

How the values were obtained:
[1] = design: method as in Novartis Investigator Brochure (IB); settings: ref Novartis Investigator Brochure (IB); cited from earlier work
Abl = settings: read-out: Abl IC50; stated in discussion, no reference given; cited from earlier work
[2] = design: method as in Novartis Investigator Brochure (IB); settings: quoted with the PgP IC50; ref Novartis Investigator Brochure (IB); cited from earlier work
PgP = settings: read-out: PgP inhibitor IC50; ref Novartis Investigator Brochure (IB); cited from earlier work
total alpha-synuclein = assay: Total alpha-synuclein ELISA in CSF and plasma
TREM2 = settings: Nilotinib-treated groups, single dose

## Cc1cn(-c2cc(NC(=O)c3ccc(C)c(Nc4nccc(-c5cccnc5)n4)c3)cc(C(F)(F)F)c2)cn1 [Nilotinib]
[1]
  passive permeability: moderate
Abl
  IC50: […]
[2]
  Cmax: 60 nM
PgP
  IC50: […]
Total alpha-synuclein; 150 mg group, Figure 5B
  plasma total alpha-synuclein vs placebo: significantly reduced
Total alpha-synuclein; 3 hours and 4 hours
  plasma total alpha-synuclein vs placebo: No difference
Total alpha-synuclein; all Nilotinib-treated groups, 1 hour post dosing
  plasma concentration of total alpha-synuclein vs placebo: […]
TREM2
  plasma levels of TREM2 vs placebo: not changed
